According to publication PMC10817531, “Chlorinated Enyne Fatty Acid Amides from a Marine Cyanobacterium: Discovery of Taveuniamides L-M and Pharmacological Characterization of Taveuniamide F as a GPCR Antagonist with CNR1 Selectivity” (Marine Drugs, 2023):

Assays:
Experiment in all cases: PathHunter β-arrestin GpcrMAX assay
Format in all cases: cell-based
ADRA1B = target: T1, ADRA1B (Homo sapiens, UniProt P35368)
T1 construct: purchased DiscoveRx (Eurofins) gpcrMAX PathHunter β-arrestin panel
Description: (§1) GpcrMAX panel biosensor assays were used to characterize taveuniamide F (4, 20 µM) (agonist and antagonist mode). The experiments were carried out by DiscoveRx Corporation (Fremont, CA, USA) as described before, using PathHunter β-arrestin enzyme fragment complementation (EFC) technology.

ADRA2C = target: T2, ADRA2C (Homo sapiens, UniProt P18825)
T2 construct: purchased DiscoveRx (Eurofins) gpcrMAX PathHunter β-arrestin panel
Description: as §1

BDKRB2 = BDKRB2 (Homo sapiens, UniProt P30411)
Description: as §1

CALCRL-RAMP1 = CALCRL-RAMP1 (Homo sapiens, UniProt O60894+Q16602)
Description: as §1

CCKAR = target: T3, CCKAR (Homo sapiens, UniProt P32238)
T3 construct: purchased DiscoveRx (Eurofins) gpcrMAX PathHunter β-arrestin panel
T3 sequence (P32238 whole entry): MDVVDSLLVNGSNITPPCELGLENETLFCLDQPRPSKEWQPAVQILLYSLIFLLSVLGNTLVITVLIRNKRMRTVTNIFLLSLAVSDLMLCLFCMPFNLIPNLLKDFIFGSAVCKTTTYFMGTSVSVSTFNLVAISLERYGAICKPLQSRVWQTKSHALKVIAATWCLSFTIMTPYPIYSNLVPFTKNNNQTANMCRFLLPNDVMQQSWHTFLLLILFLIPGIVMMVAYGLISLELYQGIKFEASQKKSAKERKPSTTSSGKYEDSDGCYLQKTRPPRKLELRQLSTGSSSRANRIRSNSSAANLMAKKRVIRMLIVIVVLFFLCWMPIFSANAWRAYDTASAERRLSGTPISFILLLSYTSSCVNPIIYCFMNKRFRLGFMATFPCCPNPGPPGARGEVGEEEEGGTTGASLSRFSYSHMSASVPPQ
Description: as §1

CCR10 = target: T4, CCR10 (Homo sapiens, UniProt P46092)
T4 construct: purchased DiscoveRx (Eurofins) gpcrMAX PathHunter β-arrestin panel
Description: as §1

CCR3 = target: T5, CCR3 (Homo sapiens, UniProt P51677)
T5 construct: purchased DiscoveRx (Eurofins) gpcrMAX PathHunter β-arrestin panel
Description: as §1

CCR7 = target: T6, CCR7 (Homo sapiens, UniProt P32248)
T6 construct: purchased DiscoveRx (Eurofins) gpcrMAX PathHunter β-arrestin panel
T6 sequence (P32248 25-378): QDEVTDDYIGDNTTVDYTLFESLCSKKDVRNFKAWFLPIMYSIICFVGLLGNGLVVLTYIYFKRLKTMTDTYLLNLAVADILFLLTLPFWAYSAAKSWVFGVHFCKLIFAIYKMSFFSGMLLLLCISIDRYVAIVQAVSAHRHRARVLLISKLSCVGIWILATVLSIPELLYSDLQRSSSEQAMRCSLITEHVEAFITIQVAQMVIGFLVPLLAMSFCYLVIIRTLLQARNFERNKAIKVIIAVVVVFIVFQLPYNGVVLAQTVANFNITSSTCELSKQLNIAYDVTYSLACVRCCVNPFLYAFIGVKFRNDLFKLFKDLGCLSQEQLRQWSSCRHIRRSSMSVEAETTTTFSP
Description: as §1

CCR8 = target: T7, CCR8 (Homo sapiens, UniProt P51685)
T7 construct: purchased DiscoveRx (Eurofins) gpcrMAX PathHunter β-arrestin panel
Description: as §1

CHRM3 = target: T8, CHRM3 (Homo sapiens, UniProt P20309)
T8 construct: purchased DiscoveRx (Eurofins) gpcrMAX PathHunter β-arrestin panel
Description: as §1

DRD4 = target: T9, DRD4 (Homo sapiens, UniProt P21917)
T9 construct: purchased DiscoveRx (Eurofins) gpcrMAX PathHunter β-arrestin panel
Description: as §1

EBI2 = target: T10, EBI2 (Homo sapiens, UniProt P32249)
T10 construct: purchased DiscoveRx (Eurofins) gpcrMAX PathHunter β-arrestin panel
Description: as §1

EDNRB = target: T11, EDNRB (Homo sapiens, UniProt P24530)
T11 construct: purchased DiscoveRx (Eurofins) gpcrMAX PathHunter β-arrestin panel
Description: as §1

F2RL3 = target: T12, F2RL3 (Homo sapiens, UniProt Q96RI0)
T12 construct: purchased DiscoveRx (Eurofins) gpcrMAX PathHunter β-arrestin panel
Description: as §1

FPRL1 = target: T13, FPRL1 (Homo sapiens, UniProt P25090)
T13 construct: purchased DiscoveRx (Eurofins) gpcrMAX PathHunter β-arrestin panel
Description: as §1

FSHR = target: T14, FSHR (Homo sapiens, UniProt P23945)
T14 construct: purchased DiscoveRx (Eurofins) gpcrMAX PathHunter β-arrestin panel
Description: as §1

GLP1R = target: T15, GLP1R (Homo sapiens, UniProt P43220)
T15 construct: purchased DiscoveRx (Eurofins) gpcrMAX PathHunter β-arrestin panel
T15 sequence (P43220 24-463): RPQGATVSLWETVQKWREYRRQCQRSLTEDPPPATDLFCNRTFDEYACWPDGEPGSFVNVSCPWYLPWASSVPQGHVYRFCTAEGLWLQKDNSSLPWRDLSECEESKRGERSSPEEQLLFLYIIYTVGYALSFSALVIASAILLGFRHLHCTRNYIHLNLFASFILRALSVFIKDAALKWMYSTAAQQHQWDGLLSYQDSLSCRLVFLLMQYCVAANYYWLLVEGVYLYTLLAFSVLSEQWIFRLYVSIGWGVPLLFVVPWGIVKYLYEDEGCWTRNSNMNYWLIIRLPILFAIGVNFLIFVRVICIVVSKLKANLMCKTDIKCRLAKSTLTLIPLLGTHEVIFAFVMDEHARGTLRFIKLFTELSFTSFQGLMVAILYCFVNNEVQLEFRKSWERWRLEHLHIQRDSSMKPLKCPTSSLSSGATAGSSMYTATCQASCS
Description: as §1

GLP2R = target: T16, GLP2R (Homo sapiens, UniProt O95838)
T16 construct: purchased DiscoveRx (Eurofins) gpcrMAX PathHunter β-arrestin panel
Description: as §1

HCRTR1 = target: T17, HCRTR1 (Homo sapiens, UniProt O43613)
T17 construct: purchased DiscoveRx (Eurofins) gpcrMAX PathHunter β-arrestin panel
T17 sequence (O43613 whole entry): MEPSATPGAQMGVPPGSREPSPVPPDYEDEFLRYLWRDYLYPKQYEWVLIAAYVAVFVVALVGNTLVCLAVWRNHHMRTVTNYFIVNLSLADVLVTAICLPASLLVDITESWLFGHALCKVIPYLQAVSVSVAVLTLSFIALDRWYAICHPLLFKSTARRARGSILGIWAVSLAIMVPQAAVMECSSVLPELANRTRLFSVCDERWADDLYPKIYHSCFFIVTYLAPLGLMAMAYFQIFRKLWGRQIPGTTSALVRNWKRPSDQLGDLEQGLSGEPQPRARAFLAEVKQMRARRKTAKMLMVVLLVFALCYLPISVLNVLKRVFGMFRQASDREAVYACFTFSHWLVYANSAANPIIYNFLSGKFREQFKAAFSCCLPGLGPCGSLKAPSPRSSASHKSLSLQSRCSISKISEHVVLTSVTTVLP
Description: as §1

HRH2 = target: T18, HRH2 (Homo sapiens, UniProt P25021)
T18 construct: purchased DiscoveRx (Eurofins) gpcrMAX PathHunter β-arrestin panel
Description: as §1

HRH3 = target: T19, HRH3 (Homo sapiens, UniProt Q9Y5N1)
T19 construct: purchased DiscoveRx (Eurofins) gpcrMAX PathHunter β-arrestin panel
T19 sequence (Q9Y5N1 whole entry): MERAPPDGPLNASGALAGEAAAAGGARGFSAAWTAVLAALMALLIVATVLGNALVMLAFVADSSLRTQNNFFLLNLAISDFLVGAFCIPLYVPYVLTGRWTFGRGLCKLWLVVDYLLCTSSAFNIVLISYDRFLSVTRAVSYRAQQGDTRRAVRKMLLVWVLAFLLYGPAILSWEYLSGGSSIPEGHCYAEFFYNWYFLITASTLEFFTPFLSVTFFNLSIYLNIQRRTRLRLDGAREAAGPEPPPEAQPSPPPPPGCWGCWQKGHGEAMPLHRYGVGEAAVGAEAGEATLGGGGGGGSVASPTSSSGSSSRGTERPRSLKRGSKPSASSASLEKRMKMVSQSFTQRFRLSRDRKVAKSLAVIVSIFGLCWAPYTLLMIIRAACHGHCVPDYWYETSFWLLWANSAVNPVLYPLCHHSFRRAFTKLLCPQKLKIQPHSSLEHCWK
Description: as §1

HTR1E = target: T20, HTR1E (Homo sapiens, UniProt P28566)
T20 construct: purchased DiscoveRx (Eurofins) gpcrMAX PathHunter β-arrestin panel
Description: as §1

KISS1R = target: T21, KISS1R (Homo sapiens, UniProt Q969F8)
T21 construct: purchased DiscoveRx (Eurofins) gpcrMAX PathHunter β-arrestin panel
Description: as §1

MC3R = target: T22, MC3R (Homo sapiens, UniProt P41968)
T22 construct: purchased DiscoveRx (Eurofins) gpcrMAX PathHunter β-arrestin panel
Description: as §1

MC5R = target: T23, MC5R (Homo sapiens, UniProt P33032)
T23 construct: purchased DiscoveRx (Eurofins) gpcrMAX PathHunter β-arrestin panel
Description: as §1

MCHR2 = target: T24, MCHR2 (Homo sapiens, UniProt Q969V1)
T24 construct: purchased DiscoveRx (Eurofins) gpcrMAX PathHunter β-arrestin panel
Description: as §1

MRGPRX1 = target: T25, MRGPRX1 (Homo sapiens, UniProt Q96LB2)
T25 construct: purchased DiscoveRx (Eurofins) gpcrMAX PathHunter β-arrestin panel
T25 sequence (Q96LB2 whole entry): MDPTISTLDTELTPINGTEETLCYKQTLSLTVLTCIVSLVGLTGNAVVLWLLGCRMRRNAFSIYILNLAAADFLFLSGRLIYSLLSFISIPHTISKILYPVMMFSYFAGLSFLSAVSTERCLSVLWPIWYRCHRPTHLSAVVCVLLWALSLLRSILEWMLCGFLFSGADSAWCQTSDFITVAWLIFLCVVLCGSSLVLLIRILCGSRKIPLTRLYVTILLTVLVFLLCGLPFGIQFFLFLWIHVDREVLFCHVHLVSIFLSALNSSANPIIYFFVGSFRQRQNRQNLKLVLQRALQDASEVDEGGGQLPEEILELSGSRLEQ
Description: as §1

OPRM1 = target: T26, OPRM1 (Homo sapiens, UniProt P35372)
T26 construct: purchased DiscoveRx (Eurofins) gpcrMAX PathHunter β-arrestin panel
T26 sequence (P35372 whole entry): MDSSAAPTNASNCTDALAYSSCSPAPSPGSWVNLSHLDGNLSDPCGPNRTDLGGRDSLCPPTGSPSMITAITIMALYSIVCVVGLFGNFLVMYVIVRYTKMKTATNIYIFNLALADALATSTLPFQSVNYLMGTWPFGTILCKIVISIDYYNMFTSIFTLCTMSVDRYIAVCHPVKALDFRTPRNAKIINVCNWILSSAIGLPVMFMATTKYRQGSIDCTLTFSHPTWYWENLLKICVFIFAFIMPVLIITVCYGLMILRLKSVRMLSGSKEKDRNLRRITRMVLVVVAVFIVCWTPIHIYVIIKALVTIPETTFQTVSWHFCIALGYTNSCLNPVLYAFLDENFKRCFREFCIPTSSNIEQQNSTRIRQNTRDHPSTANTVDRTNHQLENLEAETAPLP
Description: as §1

P2RY12 = target: T27, P2RY12 (Homo sapiens, UniProt Q9H244)
T27 construct: purchased DiscoveRx (Eurofins) gpcrMAX PathHunter β-arrestin panel
T27 sequence (Q9H244 whole entry, one chain of several): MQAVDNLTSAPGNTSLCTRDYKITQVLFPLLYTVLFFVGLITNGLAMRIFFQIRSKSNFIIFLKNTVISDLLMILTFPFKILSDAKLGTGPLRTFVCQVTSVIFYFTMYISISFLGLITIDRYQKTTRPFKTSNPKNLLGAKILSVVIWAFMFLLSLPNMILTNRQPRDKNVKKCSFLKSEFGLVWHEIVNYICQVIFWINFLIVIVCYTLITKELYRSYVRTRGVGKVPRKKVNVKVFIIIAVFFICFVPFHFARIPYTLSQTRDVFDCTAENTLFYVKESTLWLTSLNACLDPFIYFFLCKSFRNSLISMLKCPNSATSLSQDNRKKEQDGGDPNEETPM
Description: as §1

P2RY2 = target: T28, P2RY2 (Homo sapiens, UniProt P41231)
T28 construct: purchased DiscoveRx (Eurofins) gpcrMAX PathHunter β-arrestin panel
T28 sequence (P41231 whole entry): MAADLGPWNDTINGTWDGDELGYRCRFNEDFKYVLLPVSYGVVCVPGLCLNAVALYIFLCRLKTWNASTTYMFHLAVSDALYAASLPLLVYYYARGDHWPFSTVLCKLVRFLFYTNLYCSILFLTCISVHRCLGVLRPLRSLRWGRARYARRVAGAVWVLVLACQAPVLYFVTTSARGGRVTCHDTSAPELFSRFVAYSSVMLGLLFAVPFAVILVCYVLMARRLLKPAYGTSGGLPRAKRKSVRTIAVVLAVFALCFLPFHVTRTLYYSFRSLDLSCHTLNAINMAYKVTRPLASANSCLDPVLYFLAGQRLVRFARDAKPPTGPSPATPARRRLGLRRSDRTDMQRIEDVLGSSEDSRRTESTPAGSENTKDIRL
Description: as §1

PRLHR = target: T29, PRLHR (Homo sapiens, UniProt P49683)
T29 construct: purchased DiscoveRx (Eurofins) gpcrMAX PathHunter β-arrestin panel
Description: as §1

PROKR2 = target: T30, PROKR2 (Homo sapiens, UniProt Q8NFJ6)
T30 construct: purchased DiscoveRx (Eurofins) gpcrMAX PathHunter β-arrestin panel
Description: as §1

PTGER3 = target: T31, PTGER3 (Homo sapiens, UniProt P43115)
T31 construct: purchased DiscoveRx (Eurofins) gpcrMAX PathHunter β-arrestin panel
Description: as §1

PTHR1 = target: T32, PTHR1 (Homo sapiens, UniProt Q03431)
T32 construct: purchased DiscoveRx (Eurofins) gpcrMAX PathHunter β-arrestin panel
Description: as §1

PTHR2 = target: T33, PTHR2 (Homo sapiens, UniProt P49190)
T33 construct: purchased DiscoveRx (Eurofins) gpcrMAX PathHunter β-arrestin panel
Description: as §1

RXFP3 = target: T34, RXFP3 (Homo sapiens, UniProt Q9NSD7)
T34 construct: purchased DiscoveRx (Eurofins) gpcrMAX PathHunter β-arrestin panel
Description: as §1

SCTR = target: T35, SCTR (Homo sapiens, UniProt P47872)
T35 construct: purchased DiscoveRx (Eurofins) gpcrMAX PathHunter β-arrestin panel
T35 sequence (P47872 23-440): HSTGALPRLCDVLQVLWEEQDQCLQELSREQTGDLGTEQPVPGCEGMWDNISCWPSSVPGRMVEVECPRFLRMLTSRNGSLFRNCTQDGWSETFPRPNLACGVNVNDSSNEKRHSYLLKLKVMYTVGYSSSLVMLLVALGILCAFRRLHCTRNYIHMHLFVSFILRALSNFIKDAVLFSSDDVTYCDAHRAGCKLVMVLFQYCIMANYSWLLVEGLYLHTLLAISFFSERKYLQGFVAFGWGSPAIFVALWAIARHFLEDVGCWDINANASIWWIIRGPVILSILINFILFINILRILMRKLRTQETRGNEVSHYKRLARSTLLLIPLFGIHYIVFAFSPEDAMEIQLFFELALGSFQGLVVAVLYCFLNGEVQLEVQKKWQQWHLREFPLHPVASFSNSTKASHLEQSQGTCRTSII
Description: as §1

TACR1 = target: T36, TACR1 (Homo sapiens, UniProt P25103)
T36 construct: purchased DiscoveRx (Eurofins) gpcrMAX PathHunter β-arrestin panel
Description: as §1

TBXA2R = target: T37, TBXA2R (Homo sapiens, UniProt P21731)
T37 construct: purchased DiscoveRx (Eurofins) gpcrMAX PathHunter β-arrestin panel
T37 sequence (P21731 whole entry): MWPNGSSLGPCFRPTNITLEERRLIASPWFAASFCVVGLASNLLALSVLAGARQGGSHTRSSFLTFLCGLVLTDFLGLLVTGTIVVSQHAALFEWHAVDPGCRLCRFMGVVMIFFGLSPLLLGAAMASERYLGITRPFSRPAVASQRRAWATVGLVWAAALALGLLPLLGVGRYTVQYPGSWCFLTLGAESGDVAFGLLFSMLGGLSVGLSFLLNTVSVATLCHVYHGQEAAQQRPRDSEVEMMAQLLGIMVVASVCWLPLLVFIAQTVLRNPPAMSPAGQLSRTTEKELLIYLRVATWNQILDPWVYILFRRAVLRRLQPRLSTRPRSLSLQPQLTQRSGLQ
Description: as §1

TRHR = target: T38, TRHR (Homo sapiens, UniProt P34981)
T38 construct: purchased DiscoveRx (Eurofins) gpcrMAX PathHunter β-arrestin panel
T38 sequence (P34981 whole entry): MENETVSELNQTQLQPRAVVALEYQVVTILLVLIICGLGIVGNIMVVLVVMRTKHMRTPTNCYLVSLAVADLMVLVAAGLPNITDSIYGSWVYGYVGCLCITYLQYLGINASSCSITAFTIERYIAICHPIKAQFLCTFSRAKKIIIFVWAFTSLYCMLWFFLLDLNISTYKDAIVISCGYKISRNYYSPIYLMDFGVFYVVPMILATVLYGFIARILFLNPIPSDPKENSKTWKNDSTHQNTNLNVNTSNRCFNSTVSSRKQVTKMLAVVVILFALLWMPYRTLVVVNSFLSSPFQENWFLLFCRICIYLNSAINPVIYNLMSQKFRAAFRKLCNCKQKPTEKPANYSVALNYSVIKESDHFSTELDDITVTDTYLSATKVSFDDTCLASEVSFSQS
Description: as §1

TSHR(L) = target: T39, TSHR(L) (Homo sapiens, UniProt P16473)
T39 construct: purchased DiscoveRx (Eurofins) gpcrMAX PathHunter β-arrestin panel
Description: as §1

UTR2 = target: T40, UTR2 (Homo sapiens, UniProt Q9UKP6)
T40 construct: purchased DiscoveRx (Eurofins) gpcrMAX PathHunter β-arrestin panel
Description: as §1

VIPR1 = target: T41, VIPR1 (Homo sapiens, UniProt P32241)
T41 construct: purchased DiscoveRx (Eurofins) gpcrMAX PathHunter β-arrestin panel
Description: as §1

Compound: CC(=O)N[C@@H](CCCC#C/C=C/Cl)CCCCCCC(Cl)Cl [Compound 4, taveuniamide F]
- inhibition at 20 µM (ADRA1B): 22.9%
- inhibition at 20 µM (ADRA2C): 25.1%
- inhibition at 20 µM (BDKRB2): 8.4%
- inhibition at 20 µM (CALCRL-RAMP1): 31.2%
- inhibition at 20 µM (CCKAR): 10.9%
- inhibition at 20 µM (CCR10): 33.3%
- inhibition at 20 µM (CCR3): 19.2%
- inhibition at 20 µM (CCR7): 8.2%
- inhibition at 20 µM (CCR8): 43%
- inhibition at 20 µM (CHRM3): 59.9%
- inhibition at 20 µM (DRD4): 20.8%
- inhibition at 20 µM (EBI2): 18%
- inhibition at 20 µM (EDNRB): 23%
- inhibition at 20 µM (F2RL3): 59.2%
- inhibition at 20 µM (FPRL1): 2.5%
- inhibition at 20 µM (FSHR): 40.5%
- inhibition at 20 µM (GLP1R): 59.9%
- inhibition at 20 µM (GLP2R): 20.4%
- inhibition at 20 µM (HCRTR1): 44.9%
- inhibition at 20 µM (HRH2): 24.1%
- inhibition at 20 µM (HRH3): 5%
- inhibition at 20 µM (HTR1E): 26.8%
- inhibition at 20 µM (KISS1R): 31.5%
- inhibition at 20 µM (MC3R): 19.7%
- inhibition at 20 µM (MC5R): 39.8%
- inhibition at 20 µM (MCHR2): 21.4%
- inhibition at 20 µM (MRGPRX1): -21.3%
- inhibition at 20 µM (OPRM1): -1%
- inhibition at 20 µM (P2RY12): 1.4%
- inhibition at 20 µM (P2RY2): -1.1%
- inhibition at 20 µM (PRLHR): 46.6%
- inhibition at 20 µM (PROKR2): 30.5%
- inhibition at 20 µM (PTGER3): -13%
- inhibition at 20 µM (PTHR1): 17.5%
- inhibition at 20 µM (PTHR2): 30.4%
- inhibition at 20 µM (RXFP3): 32.8%
- inhibition at 20 µM (SCTR): 16.9%
- inhibition at 20 µM (TACR1): 0.5%
- inhibition at 20 µM (TBXA2R): -4.4%
- inhibition at 20 µM (TRHR): 42.8%
- inhibition at 20 µM (TSHR(L)): 7.6%
- inhibition at 20 µM (UTR2): 17.7%
- inhibition at 20 µM (VIPR1): -2.9%
